Experimental data as given in the supplement of paper PMC10733146.

How the values were obtained:
Assay in all cases: viability relative to DMSO control (fraction); higher = less drug effect (more viable cells)
Settings in all cases: 48 h
[1] = system: primary BL patient cells (S005)
Summary of the method: (§1)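 Viability was quantified by CellTiter-Glo luminescence and related to the median of 16 inner DMSO wells. Before that, primary mononuclear tumour cells, fresh or cryopreserved and Ficoll-isolated from blood or bone marrow or prepared from processed lymph node, were plated at 4 × 10^4 cells per well in 384-well plates containing pre-plated compounds at five concentrations, one well each. Plates were incubated in RPMI-1640 with penicillin/streptomycin, L-glutamine and human serum at 37 °C and 5% CO2 for 48 h.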

[2] = system: primary MCL patient cells (S053)
Summary of the method: as §1

[3] = system: primary AML patient cells (S012)
Summary of the method: as §1

[4] = system: primary AML patient cells (S085)
Summary of the method: as §1

[5] = system: primary AML patient cells (S060)
Summary of the method: as §1

[6] = system: primary AML patient cells (S011)
Summary of the method: as §1

[7] = system: primary AML patient cells (S021)
Summary of the method: as §1

[8] = system: primary B-PLL patient cells (S016)
Summary of the method: as §1

[9] = system: primary MCL patient cells (S068)
Summary of the method: as §1

[10] = system: primary MCL patient cells (S063)
Summary of the method: as §1

[11] = system: primary AML patient cells (S056)
Summary of the method: as §1

[12] = system: primary AML patient cells (S017)
Summary of the method: as §1

[13] = system: primary FL patient cells (S087)
Summary of the method: as §1

[14] = system: primary CLL patient cells (S031)
Summary of the method: as §1

[15] = system: primary ALL patient cells (S048)
Summary of the method: as §1

[16] = system: primary FL patient cells (S022)
Summary of the method: as §1

[17] = system: primary ALL patient cells (S088)
Summary of the method: as §1

[18] = system: primary AML patient cells (S081)
Summary of the method: as §1

[19] = system: primary CLL patient cells (S043)
Summary of the method: as §1

[20] = system: primary AML patient cells (S006)
Summary of the method: as §1

**Q.** What does the source list for `COc1cccc2c1C(=O)c1c(O)c3c(c(O)c1C2=O)C[C@@](O)(C(=O)CO)C[C@@H]3O[C@H]1C[C@H](N)[C@H](O)[C@H](C)O1` [Doxorubicin]?
**A.** viability ([1]; 0.0016 µM): 1.03; viability ([1]; 0.008 µM): 1.03; viability ([1]; 0.04 µM): 0.968; viability ([1]; 0.2 µM): 0.875; viability ([1]; 1 µM): 0.838; viability ([2]; 0.0016 µM): 0.959; viability ([2]; 0.008 µM): 0.756; viability ([2]; 0.04 µM): 0.448; viability ([2]; 0.2 µM): 0.216; viability ([2]; 1 µM): 0.299; viability ([3]; 0.0016 µM): 1.04; viability ([3]; 0.008 µM): 1.04; viability ([3]; 0.04 µM): 0.88; viability ([3]; 0.2 µM): 0.896; viability ([3]; 1 µM): 0.0673; viability ([4]; 0.0016 µM): 0.94; viability ([4]; 0.008 µM): 1.09; viability ([4]; 0.04 µM): 0.834; viability ([4]; 0.2 µM): 0.278; viability ([4]; 1 µM): 0.0284; viability ([5]; 0.0016 µM): 1.03; viability ([5]; 0.008 µM): 1.05; viability ([5]; 0.04 µM): 1.04; viability ([5]; 0.2 µM): 1.16; viability ([5]; 1 µM): 0.124; viability ([6]; 0.0016 µM): 1.05; viability ([6]; 0.008 µM): 1.04; viability ([6]; 0.04 µM): 0.973; viability ([6]; 0.2 µM): 0.507; viability ([6]; 1 µM): 0.0215; viability ([7]; 0.0016 µM): 0.994; viability ([7]; 0.008 µM): 1.01; viability ([7]; 0.04 µM): 0.929; viability ([7]; 0.2 µM): 0.438; viability ([7]; 1 µM): 0.182; viability ([8]; 0.0016 µM): 1.09; viability ([8]; 0.008 µM): 0.847; viability ([8]; 0.04 µM): 0.175; viability ([8]; 0.2 µM): 0.0427; viability ([8]; 1 µM): 0.0239; viability ([9]; 0.0016 µM): 0.995; viability ([9]; 0.008 µM): 0.978; viability ([9]; 0.04 µM): 0.761; viability ([9]; 0.2 µM): 0.307; viability ([9]; 1 µM): 0.0522; viability ([10]; 0.0016 µM): 1.01; viability ([10]; 0.008 µM): 0.98; viability ([10]; 0.04 µM): 0.997; viability ([10]; 0.2 µM): 0.735; viability ([10]; 1 µM): 0.0566; viability ([11]; 0.0016 µM): 1.02; viability ([11]; 0.008 µM): 0.889; viability ([11]; 0.04 µM): 0.812; viability ([11]; 0.2 µM): 0.584; viability ([11]; 1 µM): 0.0807; viability ([12]; 0.0016 µM): 1.2; viability ([12]; 0.008 µM): 1.1; viability ([12]; 0.04 µM): 1.07; viability ([12]; 0.2 µM): 0.96; viability ([12]; 1 µM): 0.146; viability ([13]; 0.0016 µM): 1.04; viability ([13]; 0.008 µM): 1.03; viability ([13]; 0.04 µM): 0.98; viability ([13]; 0.2 µM): 0.776; viability ([13]; 1 µM): 0.584; viability ([14]; 0.0016 µM): 1.14; viability ([14]; 0.008 µM): 1.02; viability ([14]; 0.04 µM): 0.534; viability ([14]; 0.2 µM): 0.0601; viability ([14]; 1 µM): 0.0158; viability ([15]; 0.0016 µM): 1.06; viability ([15]; 0.008 µM): 1.01; viability ([15]; 0.04 µM): 0.418; viability ([15]; 0.2 µM): 0.0592; viability ([15]; 1 µM): 0.0152; viability ([16]; 0.0016 µM): 1.12; viability ([16]; 0.008 µM): 1.17; viability ([16]; 0.04 µM): 0.892; viability ([16]; 0.2 µM): 0.281; viability ([16]; 1 µM): 0.183; viability ([17]; 0.0016 µM): 1.05; viability ([17]; 0.008 µM): 1.02; viability ([17]; 0.04 µM): 0.828; viability ([17]; 0.2 µM): 0.221; viability ([17]; 1 µM): 0.0329; viability ([18]; 0.0016 µM): 1.05; viability ([18]; 0.008 µM): 1.09; viability ([18]; 0.04 µM): 1.12; viability ([18]; 0.2 µM): 1.18; viability ([18]; 1 µM): 0.0358; viability ([19]; 0.0016 µM): 1.03; viability ([19]; 0.008 µM): 0.956; viability ([19]; 0.04 µM): 0.97; viability ([19]; 0.2 µM): 0.615; viability ([19]; 1 µM): 0.0447; viability ([20]; 0.0016 µM): 1.02; viability ([20]; 0.008 µM): 1.05; viability ([20]; 0.04 µM): 0.788; viability ([20]; 0.2 µM): 0.32; viability ([20]; 1 µM): 0.0625
